From paper PMC5654414, “In vitro and in vivo comparative and competitive activity-based protein profiling of GH29 α-L-fucosidases” (Chemical Science, 2015)

Legend:
FUCA1 [1] = biological target: T1, FUCA1 (Homo sapiens, UniProt P04066); test: In vitro ABP labeling of FUCA1 overexpressed in COS cells; assay type: binding
T1 sequence (P04066 32-466): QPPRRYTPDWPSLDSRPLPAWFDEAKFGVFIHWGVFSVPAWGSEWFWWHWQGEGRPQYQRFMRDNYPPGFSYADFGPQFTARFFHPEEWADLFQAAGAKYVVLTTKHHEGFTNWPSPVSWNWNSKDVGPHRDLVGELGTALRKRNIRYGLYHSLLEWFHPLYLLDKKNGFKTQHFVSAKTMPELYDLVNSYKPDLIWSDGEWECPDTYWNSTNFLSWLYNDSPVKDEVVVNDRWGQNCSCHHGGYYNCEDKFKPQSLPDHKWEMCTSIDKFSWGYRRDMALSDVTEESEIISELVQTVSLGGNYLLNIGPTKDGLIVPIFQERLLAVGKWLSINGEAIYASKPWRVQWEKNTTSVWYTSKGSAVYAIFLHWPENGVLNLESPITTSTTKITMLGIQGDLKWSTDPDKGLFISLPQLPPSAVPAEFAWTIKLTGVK
From the text: Subsequently, we exposed lysates of spleens from a healthy human individual and a patient suffering from Gaucher disease to ABP 1.
The coding sequences of H. sapiens FUCA1 (NCBI reference sequence XM_005245821.1, using forward primer 5′-[…]-3′ and reverse primer 5′-[…]-3′), and of H. sapiens FUCA2 (NCBI reference sequence NM_032020.4, using forward primer 5′-[…] […]-3′ and reverse primer 5′-[…] […]-3′) were amplified via PCR and cloned into pDNOR-221 and thereafter sub-cloned in pcDNA™-DEST40 vector using the Gateway system (Invitrogen). Correctness of all constructs was verified by sequencing. Confluent COS-7 cells were transfected with pcDNA3.1 empty vector (Mock) or the vector with described insert in conjunction with FuGENE (Roche).
All pre-incubations and ABP labeling-reactions occurred for 30 min at 37 °C. Total lysates (50 μg), medium (500 μg) or purified protein preparations (5 μg) were labeled with 1 μM JJB256 1 or JJB244 2, dissolved in 150 mM McIlvaine buffer, pH 4.5, incubating for 30 min at 37 °C. […] Wet slab-gels were scanned on fluorescence using a Typhoon Variable Mode Imager (Amersham Biosciences) using λEX 488 nm and λEM 520 nm (band pass filter 40 nm) for green fluorescent JJB256 1 and λEX 532 nm and λEM 610 nM (band pass filter 30 nm) for red fluorescent JJB244 2 and JJB75.

[2] = system: purified α-L-fucosidase from Bacteroides thetaiotaomicron; test: In vitro ABP labeling of purified bacterial α-L-fucosidase; assay type: binding
Method: All pre-incubations and ABP labeling-reactions occurred for 30 min at 37 °C. Total lysates (50 μg), medium (500 μg) or purified protein preparations (5 μg) were labeled with 1 μM JJB256 1 or JJB244 2, dissolved in 150 mM McIlvaine buffer, pH 4.5, incubating for 30 min at 37 °C. For ABPP, protein preparations were pre-incubated with compounds 4 (100 μM), 6 (100 μM), 7–13 (1 or 5 mM, specified in the main text) prior to the addition of 100 nM fluorescent ABPs. Influence of pH on ABP labeling involved pre-incubation at pH 3–10 prior to addition of 100 nM ABP 1. Direct labeling of retaining β-glucosidases occurred at pH 5.0 in conjunction with 100 nM ABP JJB75. Samples were then denatured with 5× Laemmli buffer (50% (v/v) 1 M Tris–HCl, pH 6.8, 50% (v/v) 100% glycerol, 10% (w/v) DTT, 10% (w/v) SDS, 0.01% (w/v) bromophenol blue), boiled for 4 min at 100 °C, and separated by gel electrophoresis on 10% (w/v) SDS-PAGE gels running continuously at 90 V.[13],[14] Wet slab-gels were scanned on fluorescence using a Typhoon Variable Mode Imager (Amersham Biosciences) using λEX 488 nm and λEM 520 nm (band pass filter 40 nm) for green fluorescent JJB256 1 and λEX 532 nm and λEM 610 nM (band pass filter 30 nm) for red fluorescent JJB244 2 and JJB75.

[3] = biological target: T2, recombinant human FUCA1 (human lysosomal α-L-fucosidase) (Homo sapiens, UniProt P04066); test: In vitro inhibition of FUCA1 activity, 4-methylumbelliferyl-α-L-fucopyranoside substrate, lysates of COS-7 cells over-expressing enzyme; assay type: biochemical
T2 construct: expressed in transfected cells; host or cells: COS-7
T2 sequence (P04066 32-466): T1 sequence (P04066 32-466)
Method: Having the cyclophellitol aziridine inhibitors and probes in hand, we determined their inhibitory potency towards the human lysosomal α-L-fucosidase, FUCA1.
The enzymatic activity of α-L-fucosidase was assayed at 37 °C by incubating with 1.5 mM 4-methylumbelliferyl-α-L-fucopyranoside as substrate in 150 mM McIlvaine buffer, pH 4.5, supplemented with 0.1% (w/v) BSA. […] The reaction was quenched by adding excess NaOH–glycine (pH 10.6), after which fluorescence was measured with a fluorimeter LS55 (Perkin Elmer) using λEX 366 nm and λEM 445 nm.

FUCA1 [4] = biological target: T1, FUCA1; test: ABP pulldown from Gaucher spleen lysate and LC-MS/MS identification; assay type: binding; set-up: lysates of spleens from a healthy human individual and a patient suffering from Gaucher disease; from tissue; host or cells: human spleen (normal subject and type 1 Gaucher patient); conditions: 10 μM pre-incubation followed by 10 μM ABP 3
Method: To further determine the specificity of the developed ABPs, we have analyzed the ABP-labeled proteins in a complex tissue homogenate. For this purpose, we incubated Gaucher spleen lysate with biotinylated ABP 3 or with DMSO only (control) or competitive ABP 3-labeling by first incubating with fluorescent ABP 1. Glycosylated proteins were then enriched via ConA, followed by affinity purification with streptavidin coated paramagnetic beads. The identity of biotinylated and ABP 3-labeled proteins was determined by on-bead digestion with trypsin, peptide analysis by LC-MS/MS and matching against the human UniProt database, using the Mascot search engine as previously reported.[14] […]
Gaucher spleen lysate (1 g) was cut with a sterile scalpel, mixed with 4 mL 25 mM potassium phosphate buffer (pH 6.5, supplemented with 0.1% (v/v) Triton X-100 and protease inhibitor cocktail (Roche)) and sonicated three times for 10 seconds at 100% strength and kept on ice. […] Lysate was then centrifuged for 10 min at 10 000 g, supernatant collected carefully, protein concentration determined and […] total protein was then incubated with either 0.1% (v/v) DMSO, ABP 1 or ABP 3, or firstly with 10 μM ABP 1 followed by 10 μM of ABP 3, each step taking 30 min at 37 °C, in a total volume of 1 mL McIlvaine buffer, pH 4.5. […]

[5] = biological target: T3, FUCA1 (recombinant human GH29 α-L-fucosidase per table title) (Homo sapiens, UniProt P04066); test: In situ inhibition of FUCA1 in living fibroblasts; assay type: cell-based
T3 construct: endogenous in cells; host or cells: fibroblasts
T3 sequence (P04066 32-466): T1 sequence (P04066 32-466)

labeling of enzyme (FUCA1 [1]): labeled
labeling of enzyme [2]: efficiently labels
IC50 [3]: 6.9 ± 0.8 nM
blocking of ABP 3 binding by pre-incubation (FUCA1 [4]): completely blocked
IC50 [5]: 28.9 ± 4.4 nM
Structure (SMILES): CC1=CC(C)=[N+]2C1=C(CCCCc1cn(CCCCCCCC(=O)N3[C@@H]4[C@@H](C)[C@@H](O)[C@@H](O)[C@H](O)[C@@H]43)nn1)c1c(C)cc(C)n1[B-]2(F)F [compound 1]
